PubChem BioAssay (NCI)
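The compound was tested at five concentrations on cells cultured in 96-well plates, with a 48-hour exposure period. Definition used: TGI = concentration required for complete inhibition of growth.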

How the values were obtained:
Test in all cases: NCI tumour cell line growth inhibition, 48 h
[1] = system: BT-549 breast
[2] = system: DU-145 prostate
[3] = system: IGROV1 ovarian
[4] = system: M14 melanoma
[5] = system: MCF7 breast
[6] = system: MDA-MB-435
[7] = system: NCI-H460 lung
[8] = system: NCI-H522 lung
[9] = system: OVCAR-4 ovarian
[10] = system: SK-MEL-28 melanoma
[11] = system: TK-10 renal

Row | Structure (SMILES) | TGI [1] | TGI [2] | TGI [3] | TGI [4] | TGI [5] | TGI [6] | TGI [7] | TGI [8] | TGI [9] | TGI [10] | TGI [11]
1 | O=C(N/N=C(/COc1ccc(Cl)cc1)N=Cc1ccncc1)c1ccncc1 | > 100 µM | > 100 µM | > 100 µM | > 100 µM | > 100 µM | > 100 µM | > 100 µM | > 100 µM | > 100 µM | > 100 µM | > 100 µM
2 | COc1ccc(-c2cc(O)c3nc4ccccc4n3c2)cc1 | > 100 µM | > 100 µM | > 100 µM | > 100 µM | > 100 µM | > 100 µM | > 100 µM | > 100 µM | > 100 µM | > 100 µM | > 100 µM
3 | COc1ccc(N/N=C2\CCOc3ccc(C)cc3C2=O)cc1 | 87.5 µM | > 100 µM | > 100 µM | > 100 µM | > 100 µM | 15.4 µM | 53.7 µM | > 100 µM | > 100 µM | > 100 µM | > 100 µM
4 | CC1(C)OC(=O)N(c2ccccc2)C12C=Cc1cc([N+](=O)[O-])cc([N+](=O)[O-])c1O2 (stereo unspecified) | > 100 µM | > 100 µM | > 100 µM | > 100 µM | > 100 µM | > 100 µM | > 100 µM | > 100 µM | > 100 µM | > 100 µM | > 100 µM
5 | CC(C)(C)OC(=O)NCCCCC1NC(=O)[C@@H]2Cc3c([nH]c4ccccc34)C(C3CCCCC3)N2C1=O (stereo partly specified) | > 100 µM | > 100 µM | > 100 µM | > 100 µM | > 100 µM | > 100 µM | > 100 µM | > 100 µM | > 100 µM | > 100 µM | > 100 µM
6 | CC(=O)O[C@@H]1[C@H](C(C)C)[C@@H](OC(C)=O)C/C(C)=C/CC[C@]2(C)O[C@@H]12 | > 100 µM | > 100 µM | > 100 µM | > 100 µM | > 100 µM | > 100 µM | > 100 µM | > 100 µM | > 100 µM | > 100 µM | > 100 µM
7 | CCOC(=O)CSc1c(C(=O)OCC)c(=O)n(-c2ccccc2)c(=S)n1-c1ccccc1 | > 100 µM | > 100 µM | > 100 µM | > 100 µM | > 100 µM | > 100 µM | > 100 µM | > 100 µM | > 100 µM | > 100 µM | > 100 µM
8 | O=C1CC(NC(=O)C(F)(F)F)c2c(Br)sc(N3CCNCC3)c21 (stereo unspecified) | > 100 µM | > 100 µM | > 100 µM | > 100 µM | > 100 µM | > 100 µM | > 100 µM | > 100 µM | > 100 µM | > 100 µM | > 100 µM
9 | O=C1CSC(c2ccc(Cl)cc2)N1c1ccc(Oc2ccc(Cl)cc2)c(Cl)c1 (stereo unspecified) | 29 µM | 27.2 µM | 31.2 µM | 33.3 µM | 44.1 µM | 39 µM | 35.5 µM | 23.3 µM | 28.1 µM | 35.4 µM | 33.2 µM
10 | COc1cc2nc3n(c(=O)c2cc1OC)-c1ccc([N+](=O)[O-])cc1C3=O | > 100 µM | > 100 µM | > 100 µM | > 100 µM | 32 µM | 40.1 µM | > 100 µM | > 100 µM | 63.9 µM | > 100 µM | > 100 µM
11 | CCCCCCc1cc2cc(-c3csc(CC#N)n3)c(=O)oc2cc1O | > 60.2 µM | > 100 µM | > 100 µM | > 100 µM | > 100 µM | > 100 µM | > 100 µM | > 100 µM | 12.9 µM | > 100 µM | > 100 µM
12 | O=C1/C(=C\c2ccccc2)C(NC2CCCCC2)c2ccccc21 (stereo unspecified) | 5.69 µM | 3.09 µM | 10.4 µM | 3.18 µM | 2.67 µM | 3.18 µM | 8.02 µM | 2.05 µM | 3.93 µM | 6.06 µM | 2.59 µM
13 | COc1cccc(C(=O)O[C@H]2[C@@H]3[C@]4(OC(C)=O)CO[C@@H]4C[C@H](O)[C@@]3(C)C(=O)[C@H](OC(C)=O)C3=C(C)[C@@H](OC(=O)[C@H](O)[C@@H](NC(=O)OC(C)(C)C)c4ccco4)C[C@]2(O)C3(C)C)c1 | > 34.1 µM | > 37.5 µM | > 37.5 µM | 5.9 µM | > 37.5 µM | 0.0909 µM | > 37.5 µM | 0.157 µM | > 37.5 µM | > 29.5 µM | 27.4 µM
14 | C=CC1(C)CCC2C(=CCC3C2(C)CC(O)C(O)C3(C)COC2OC(C(=O)O)C(O)C(O)C2O)C1 (stereo unspecified) (tested in a mixture with another compound) | > 100 µM | > 100 µM | > 100 µM | > 100 µM | > 100 µM | > 100 µM | > 100 µM | > 100 µM | > 100 µM | > 100 µM | > 100 µM
15 | CN(C)C(=O)O/N=C1/C(c2c(O)[nH]c3ccccc23)=Nc2ccccc21 | 43.7 µM | > 100 µM | 64 µM | > 100 µM | > 100 µM | > 100 µM | > 100 µM | 75.3 µM | 33.1 µM | > 100 µM | 57.1 µM
16 | [N-]=[N+]=NC[C@H]1OCO[C@H](CN=[N+]=[N-])[C@@H](OCCOCCCl)[C@@H]1OCCOCCCl | > 100 µM | > 100 µM | > 100 µM | > 100 µM | > 100 µM | > 100 µM | > 100 µM | > 100 µM | > 100 µM | > 100 µM | > 100 µM
